Test [1] concerns lung tissue of bleomycin-injected mouse. The test is described as follows: Inhibition test of GSK3 inhibitor on tissue damage caused by bleomycin (bleomycin-induced pulmonary fibrosis model). The class given is in vivo. The note with it: 30 mg/kg intraperitoneally one hour before 1.25 U/kg bleomycin into the airway; three weeks after injection; H&E and trichrome staining; compared to the non-treatment group. As for the experimental part: (§1) The tissue of a mouse was fixed with 10% neutral formalin for one day, and a paraffin section was made. In order to remove the paraffin around the tissue, the tissue was allowed to react with a xylene solution and 95%, 90%, and 70% ethanol solutions in sequential order for 5 minutes each, and then immersed in a hematoxylin solution for 1 minute to stain the nuclei and then washed under running water for 10 minutes. Thereafter, the cytoplasm was stained by immersing the tissue in an eosin solution for 30 seconds. Thereafter, the tissue was immersed in 50%, 70%, 90%, and 95% ethanol solutions, and a xylene solution in sequential order, followed by dropping one drop of a mounting solution. Then, the tissue was covered with a cover slide and observed under a microscope (Carl Zeiss Vision).
The tissue of a mouse was fixed with 10% neutral formalin for one day, and a paraffin section was made. In order to remove paraffin around the tissue, the tissue was allowed to react with a xylene solution and 95%, 90%, and 70% ethanol solutions in sequential order for 5 minutes each. For the antigen activation of the tissue, the tissue was immersed in a 0.1 M citric acid solution (pH 6.0) and then boiled for 20 minutes. […]

In test [2] the test system is vascular wall in the lung tissue of a mouse animal model irradiated with 90 Gy. In words: Inhibition test of GSK3 inhibitor on in vivo vascular damage caused by radiation (vascular wall thickness, H&E staining). The note with it: 30 mg/kg intraperitoneally one hour before 90 Gy chest irradiation, two weeks after irradiation, compared to the non-treatment group (IR). As for the experimental part:
as §1
The lung tissue of a mouse animal model, in which the chest of the mouse was irradiated in a size of 3 mm with an intensity of 90 Gy, was fixed with 10% formalin, and a paraffin section was made. Thereafter, the tissue was stained with hematoxylin and eosin. Upon observing the tissue with this staining method, the cell nucleus is observed in blue and the cytoplasm in pink. One hour before irradiating the mouse animal model, 30 mg/kg of […] or CHIR-98014 was administered intraperitoneally. […]

Test [3] has as its system lung tissue of a mouse animal model irradiated with 90 Gy. The test is described as follows: Inhibition test of GSK3 inhibitor on tissue damage caused by radiation (H&E staining). The class given is in vivo. The following applies: 30 mg/kg intraperitoneally one hour before 90 Gy chest irradiation, two weeks after irradiation, compared to the non-treatment group (IR).
Procedure: The tissue of a mouse was fixed with 10% neutral formalin for one day, and a paraffin section was made. In order to remove the paraffin around the tissue, the tissue was allowed to react with a xylene solution and 95%, 90%, and 70% ethanol solutions in sequential order for 5 minutes each, and then immersed in a hematoxylin solution for 1 minute to stain the nuclei and then washed under running water for 10 minutes. Thereafter, the cytoplasm was stained by immersing the tissue in an eosin solution for 30 seconds. Thereafter, the tissue was immersed in 50%, 70%, 90%, and 95% ethanol solutions, and a xylene solution in sequential order, followed by dropping one drop of a mounting solution. Then, the tissue was covered with a cover slide and observed under a microscope (Carl Zeiss Vision). The lung tissue of a mouse animal model, in which the chest of the mouse was irradiated in a size of 3 mm with an intensity of 90 Gy, was fixed with 10% formalin, and a paraffin section was made. Thereafter, tissue inflammatory response and fibrosis were identified by using a hematoxylin and eosin staining method. […] Two weeks after the irradiation, the inflammatory response and fibrosis of the tissue damage site were identified by using a hamatoxylin and eosin staining method.
Test [4] concerns pulmonary vascular endothelial cells of irradiated C57BL/6 mouse lung. The test is described as follows: Pulmonary fibrosis inhibition test in experimental animal model (collagen, trichrome staining). Type of test: in vivo. The note with it: 30 mg/kg intraperitoneally one hour before 90 Gy lung irradiation, compared to the irradiation group (IR).
Procedure: The tissue of a mouse was fixed with 10% neutral formalin for one day, and a paraffin section was made. In order to remove paraffin around the tissue, the tissue was allowed to react with a xylene solution and 95%, 90%, and 70% ethanol solutions in sequential order for 5 minutes each. For the antigen activation of the tissue, the tissue was immersed in a 0.1 M citric acid solution (pH 6.0) and then boiled for 20 minutes. Subsequently, the tissue was allowed to react with a Bouin's solution for 1 minute, Weigert's hematoxylin for 10 minutes, phoshotunstic/phosphomolydic acid for 10 minutes, aniline blue for 5 minutes, and 1% acetic acid for 1 minute in sequential order. Thereafter, a dehydration process was performed, and then the tissue was covered with a cover glass and observed under a microscope (Carl Zeiss Vision).
In order to observe whether a phenomenon of pulmonary fibrosis of vascular endothelial cells is shown as the symptom of pulmonary fibrosis occurred after radiotherapy, the site of the lung of a C57BL/6 mouse was topically irradiated with an intensity of 90 Gy. After excising the lung from the mouse, the cross-section of the aorta of the lung tissue was stained by a trichrome staining method in order to identify collagen which is a protein shown upon fibrosis of the pulmonary vascular endothelial cells.
Test [5] concerns γH2AX. In words: Inhibition test of GSK3 inhibitor on DNA damage caused by radiation (γH2AX immunostaining). Type of test: in vivo, mouse. The following applies: 30 mg/kg one hour prior to 90 Gy lung irradiation, compared to the non-treatment group (IR).
Procedure: The tissue of a mouse was fixed with 10% neutral formalin for one day, and a paraffin section was made. In order to remove paraffin around the tissue, the tissue was immersed in a xylene solution and 100%, 95%, 90%, and 70% ethanol solutions in sequential order. For the antigen activation of the tissue, the tissue was immersed in a 0.1 M citric acid solution (pH 6.0) and boiled for 30 minutes, and then reacted with 3% hydrogen peroxide for 15 minutes. The tissue was allowed to react with γH2AX (abcam), which was diluted in 1:200 ratio in a PBS solution (including phosphate based saline buffer and 0.1% triton x-100), at 4° C. for 16 hours. After washing the tissue with PBS, a secondary antibody conjugated with biotin was diluted in 1:200 ratio and reacted with the tissue at room temperature for 30 minutes. After reacting the tissue with ABC (Avidin biotin complex) at room temperature for 30 minutes and color-developing 3,3′-DAB (3,3′-diaminobenzidine), the tissue was counterstained with hematoxylin. Subsequently, the tissue was immersed in 50%, 70%, 90%, 95%, and 100% ethanol solutions and a xylene solution in sequential order, followed by dropping one drop of a mounting solution. Then, the tissue was covered with a cover slide and observed under a microscope (Carl Zeiss Vision). […]

In the case of `Cc1c[nH]c(-c2cnc(NCCNc3ccc(C#N)cn3)nc2-c2ccc(Cl)cc2Cl)n1` [CHIR-99021, 6-[[2-[[4-(2,4-dichlorophenyl)-5-(5-methyl-1H-imidazol-2-yl)-2-pyrimidinyl]amino]ethyl]amino]-3-pyridinecarbonitrile], in test [1], the “pathological characteristics (infiltration of inflammatory cells, deposition of collagen, fibrous nodules, interstitial thickening)” value is recorded as “remarkably inhibited”. Moreover, in test [2], the “thickness of the vascular wall” value was “remarkably reduced”. Besides, the “infiltration of the inflammatory cells and the fibrotic matrix around blood vessels” value in test [3] was “remarkably reduced”. For the same molecule, the “blue sites of collagen (protein associated with pulmonary fibrosis) in inner wall of the aorta of the lung” value in test [4] is “remarkably reduced”. For the same molecule, the “expression of γH2AX according to the DNA damage” value in test [5] is listed as “remarkably reduced”.
As for `Nc1nc(NCCNc2ncc(-c3ncc[nH]3)c(-c3ccc(Cl)cc3Cl)n2)ccc1[N+](=O)[O-]` [CHIR-98014, N-6-[2-[[4-(2,4-dichlorophenyl)-5-(1H-imidazol-2-yl)-2-pyrimidinyl]amino]ethyl]-3-nitro-2,6-pyridinediamine], the “pathological characteristics (infiltration of inflammatory cells, deposition of collagen, fibrous nodules, interstitial thickening)” value in test [1] was “remarkably inhibited”. Also, the “thickness of the vascular wall” value in test [2] is “remarkably reduced”. Also, the “infiltration of the inflammatory cells and the fibrotic matrix around blood vessels” value in test [3] is reported as “remarkably reduced”. In addition, the “blue sites of collagen (protein associated with pulmonary fibrosis) in inner wall of the aorta of the lung” value in test [4] was “remarkably reduced”. In addition, the “expression of γH2AX according to the DNA damage” value in test [5] was “remarkably reduced”.

Values taken from patent publication US20210169882A1, “PHARMACEUTICAL COMPOSITION FOR PROTECTING OR MITIGATING RADIATION DAMAGE, AND FOR PREVENTING OR TREATING PULMONARY FIBROSIS” (KOREA INSTITUTE OF RADIOLOGICAL & MEDICAL SCIENCES, priority 2017, published 2021).
